pEC50: −log10 of the molar value.

The target in this test is human APJ receptor (Homo sapiens (Human), UniProt P35414). Kind of test: Intracellular cAMP accumulation assay (APJ hcAMP, HTRF). The note with it: HEK293 cells stably expressing human APJ receptor; inhibition of forskolin-mediated cAMP production; read-out: Human APJ cAMP EC50 Potency range. In kind it is cell-based. In short, it runs like this: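 HEK293 cells stably expressing human APJ, 5,000 per well, incubated 30 min at rt with compound, […] and 2 μM forskolin. cAMP measured by HTRF against a cAMP standard curve as inhibition of forskolin-driven production. EC50 from variable-slope sigmoidal fit.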
Sequence of human APJ receptor (P35414 whole entry): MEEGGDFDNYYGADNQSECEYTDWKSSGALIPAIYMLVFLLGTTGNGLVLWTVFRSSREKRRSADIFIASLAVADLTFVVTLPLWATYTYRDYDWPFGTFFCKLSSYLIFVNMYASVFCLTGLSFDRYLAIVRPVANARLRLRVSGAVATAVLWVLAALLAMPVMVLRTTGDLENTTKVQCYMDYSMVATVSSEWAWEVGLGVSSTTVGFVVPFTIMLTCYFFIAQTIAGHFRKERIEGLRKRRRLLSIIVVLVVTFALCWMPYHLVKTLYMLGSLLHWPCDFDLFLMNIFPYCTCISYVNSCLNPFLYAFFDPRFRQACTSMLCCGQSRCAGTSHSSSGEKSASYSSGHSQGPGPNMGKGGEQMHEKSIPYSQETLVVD
Turning to `CCCCc1nc(=O)c(S(=O)(=O)c2ccc(-c3cccnc3C)cc2)c(O)n1[C@H]1CCc2c(C#N)cccc21` [Example 539, (1S)-1-{2-butyl-6-hydroxy-5-[4-(2-methylpyridin-3-yl)benzenesulfonyl]-4-oxo-1,4-dihydropyrimidin-1-yl}-2,3-dihydro-1H-indene-4-carbonitrile], the pEC50 (usually −log10 of the EC50, conventionally taken in molar units) was 8.00 to 11.00.

As to `CCCCc1nc(=O)c(S(=O)(=O)c2ccc(-c3ccc(F)nc3C)cc2)c(O)n1[C@H]1CCc2c(C#N)cccc21` [Example 540, (1S)-1-{2-butyl-5-[4-(6-fluoro-2-methylpyridin-3-yl)benzenesulfonyl]-6-hydroxy-4-oxo-1,4-dihydropyrimidin-1-yl}-2,3-dihydro-1H-indene-4-carbonitrile], the pEC50 was 8.00 to 11.00.

For the molecule `CCCCc1nc(=O)c(S(=O)(=O)c2ccc(-c3ccncc3C)cc2)c(O)n1[C@H]1CCc2c(C#N)cccc21` [Example 541, (1S)-1-{2-butyl-6-hydroxy-5-[4-(3-methylpyridin-4-yl)benzenesulfonyl]-4-oxo-1,4-dihydropyrimidin-1-yl}-2,3-dihydro-1H-indene-4-carbonitrile], the pEC50 was 8.00 to 11.00.

On to `CCCCc1nc(=O)c(S(=O)(=O)c2ccc(-c3ccnc(F)c3C)cc2)c(O)n1[C@@H]1CCc2ccc(C#N)cc21` [Example 542, (3R)-3-{2-butyl-5-[4-(2-fluoro-3-methylpyridin-4-yl)benzenesulfonyl]-6-hydroxy-4-oxo-1,4-dihydropyrimidin-1-yl}-2,3-dihydro-1H-indene-5-carbonitrile], for which the pEC50 is 7.00 to 8.00.

In the case of `CCCCc1nc(=O)c(S(=O)(=O)c2ccc(-c3cccc(C(=O)NC)c3)cc2)c(O)n1[C@@H]1CCc2ccc(C#N)cc21` [Example 543, 4′-({2-butyl-1-[(1R)-6-cyano-2,3-dihydro-1H-inden-1-yl]-6-hydroxy-4-oxo-1,4-dihydropyrimidin-5-yl}sulfonyl)-N-methyl-[1,1′-biphenyl]-3-carboxamide], the pEC50 was 7.00 to 8.00.

For the molecule `CCCCc1nc(=O)c(S(=O)(=O)c2ccc(-c3ccncc3C)cc2)c(O)n1[C@@H]1CCc2ccc(C#N)cc21` [Example 544, (3R)-3-{2-butyl-6-hydroxy-5-[4-(3-methylpyridin-4-yl)benzenesulfonyl]-4-oxo-1,4-dihydropyrimidin-1-yl}-2,3-dihydro-1H-indene-5-carbonitrile], the pEC50 was 7.00 to 8.00.

`CCCCc1nc(=O)c(S(=O)(=O)c2ccc(-c3ccc(C(=O)NC)cc3F)cc2)c(O)n1[C@@H](CC)c1cccc(C#N)c1` [Example 545, 4′-({2-butyl-1-[(1S)-1-(3-cyanophenyl)propyl]-6-hydroxy-4-oxo-1,4-dihydropyrimidin-5-yl}sulfonyl)-2-fluoro-N-methyl-[1,1′-biphenyl]-4-carboxamide]: the pEC50 is 8.00 to 11.00.

For the molecule `CCCCc1nc(=O)c(S(=O)(=O)c2ccc(-c3ccc(F)nc3C)cc2)c(O)n1[C@@H]1CCc2ccc(C#N)cc21` [Example 546, (3R)-3-{2-butyl-5-[4-(6-fluoro-2-methylpyridin-3-yl)benzenesulfonyl]-6-hydroxy-4-oxo-1,4-dihydropyrimidin-1-yl}-2,3-dihydro-1H-indene-5-carbonitrile], the negative-log EC50 (pEC50) was 6.52 to 7.00.

As to `CCCCc1nc(=O)c(S(=O)(=O)c2ccc(-c3cccnc3C)cc2)c(O)n1[C@@H]1CCc2ccc(C#N)cc21` [Example 547, (3R)-3-{2-butyl-6-hydroxy-5-[4-(2-methylpyridin-3-yl)benzenesulfonyl]-4-oxo-1,4-dihydropyrimidin-1-yl}-2,3-dihydro-1H-indene-5-carbonitrile], the pEC50 is 7.00 to 8.00.

As for `CCCCc1nc(=O)c(S(=O)(=O)c2ccc(-c3ccccc3C(=O)NC)cc2)c(O)n1[C@@H]1CCc2ccc(C#N)cc21` [Example 548, 4′-({2-butyl-1-[(1R)-6-cyano-2,3-dihydro-1H-inden-1-yl]-6-hydroxy-4-oxo-1,4-dihydropyrimidin-5-y1}sulfonyl)-N-methyl-[1,1′-biphenyl]-2-carboxamide], the pEC50 was 7.00 to 8.00.

The values above are taken from patent US10508104B2, “6-hydroxy-5-(phenyl/heteroarylsulfonyl)pyrimidin-4(1H)-one as APJ agonists” (Bristol-Myers Squibb Company, priority 2016, dated 2019).
